From PubChem BioAssay (NCI) come the findings set out here.

Test systems include A549 NSCLC; CCRF-CEM leukemia; NCI-H23 lung; SK-MEL-5 melanoma; SW-620 colon; U251 CNS; UACC-62 melanoma; IGROV1 ovarian; RPMI-8226 leukemia.
Assay in all cases: NCI tumour cell line growth inhibition, 48 h

Values joined by “and” are separate entries in the source; they are usually repeats but may differ in a detail not shown here. Equal entries are not always repeated.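 Briefly, cells in 96-well plates were exposed to five compound concentrations for 48 h, and endpoints were estimated by linear interpolation. The concentration for 50% growth inhibition is given as GI50. TGI is the concentration that stops growth completely.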

As for `CC(C)(C)OC(=O)NC1CCC[C@H]1O` (stereo partly specified), the TGI in the assay on A549 NSCLC, in the assay with CCRF-CEM leukemia, with NCI-H23 lung, with SK-MEL-5 melanoma, in the assay on SW-620 colon and with U251 CNS was > 100 µM throughout. The TGI with UACC-62 melanoma is > 100 µM.

Regarding `Cc1nc(-c2nc(C)c(C(=O)NN(C)C)s2)sc1C(=O)NN(C)C`, the TGI with CCRF-CEM leukemia was > 100 µM; with IGROV1 ovarian, > 100 µM; in the assay on NCI-H23 lung, > 100 µM; with RPMI-8226 leukemia it was 91.2 µM; in the assay on SK-MEL-5 melanoma it was > 100 µM; in the assay on U251 CNS, > 100 µM. Moreover, the TGI in the assay with UACC-62 melanoma was > 100 µM.

With `CCc1ccc(Nc2cc(=O)[nH]c(=S)n2C)cc1`, the TGI with A549 NSCLC, in the assay on CCRF-CEM leukemia, in the assay on IGROV1 ovarian, in the assay on NCI-H23 lung, in the assay with RPMI-8226 leukemia and in the assay on SK-MEL-5 melanoma was > 100 µM each time. Besides, the TGI in the assay with SW-620 colon, in the assay on U251 CNS and in the assay on UACC-62 melanoma was > 100 µM each time.

As to `CC(=O)OC1C/C(C)=C/CCC(C)/C=C/C2(C)CCC(C(C)(C)O)C12` (stereo unspecified), the TGI is > 100 µM in the assay on A549 NSCLC; > 100 µM with CCRF-CEM leukemia; > 100 µM in the assay with IGROV1 ovarian; > 100 µM in the assay on NCI-H23 lung; 71.7 µM in the assay on RPMI-8226 leukemia; > 100 µM with SK-MEL-5 melanoma. Moreover, the TGI in the assay on SW-620 colon, in the assay on U251 CNS and in the assay with UACC-62 melanoma was > 100 µM throughout.

Turning to `CC(=O)Nc1ccccc1-c1cnc2ccccc2n1`, the TGI in the assay with A549 NSCLC, in the assay on CCRF-CEM leukemia, in the assay with IGROV1 ovarian, with NCI-H23 lung, in the assay with RPMI-8226 leukemia and with SK-MEL-5 melanoma was > 100 µM each time. Also, the TGI in the assay on SW-620 colon, in the assay on U251 CNS and in the assay with UACC-62 melanoma was > 100 µM each time.

In the case of `COC(=O)c1c2c(c(-c3ccccc3)c3c1-c1nc(Cl)ccc1CC3)CCc1ccc(Cl)nc1-2`, the TGI with A549 NSCLC, with CCRF-CEM leukemia, in the assay with IGROV1 ovarian, in the assay on NCI-H23 lung, with RPMI-8226 leukemia and in the assay with SK-MEL-5 melanoma was > 100 µM throughout. Further, the TGI with SW-620 colon, with U251 CNS and in the assay with UACC-62 melanoma was > 100 µM in each case.

Take `CC(=O)OCC1OC(n2c(=O)n(-c3ccccc3)c(=O)c3cc(Br)cc(Br)c32)C(OC(C)=O)C(OC(C)=O)C1OC(C)=O` (stereo unspecified): the TGI with A549 NSCLC, with CCRF-CEM leukemia, in the assay on IGROV1 ovarian, in the assay on NCI-H23 lung, in the assay with RPMI-8226 leukemia and in the assay on SK-MEL-5 melanoma was > 100 µM throughout. Further, the TGI with SW-620 colon, in the assay on U251 CNS and with UACC-62 melanoma was > 100 µM throughout.

Consider `Nc1ccc2c(c1)CC1c3ccccc3C(C2)c2ccccc21`, for which the TGI in the assay with A549 NSCLC, in the assay on CCRF-CEM leukemia, with IGROV1 ovarian, in the assay with RPMI-8226 leukemia, with SK-MEL-5 melanoma and in the assay with SW-620 colon was > 100 µM throughout. Further, the TGI in the assay on U251 CNS and with UACC-62 melanoma was > 100 µM each time.

For `CCOC(=O)C(=Cc1cc(OC)ccc1OC)C(=O)OCC`, the TGI was determined as 26.9 µM with A549 NSCLC; 58.5 µM in the assay on IGROV1 ovarian; 10.9 µM in the assay with NCI-H23 lung; 10.9 µM with RPMI-8226 leukemia; 17.2 µM with SK-MEL-5 melanoma; 14 µM with SW-620 colon. Further, the TGI with U251 CNS amounted to 20 µM; in the assay with UACC-62 melanoma, 6.13 µM.

Consider `Nc1nc(N)c(N=O)c(Nc2ccc(I)cc2)n1`, for which the TGI in the assay on A549 NSCLC is > 100 µM; in the assay on CCRF-CEM leukemia it was 89.9 µM; in the assay on IGROV1 ovarian, 25.8 µM; in the assay with NCI-H23 lung it was 82.5 µM; with RPMI-8226 leukemia, > 100 µM; with SK-MEL-5 melanoma, 26.3 µM. Besides, the figures for the TGI in the assay with SW-620 colon, with U251 CNS and in the assay with UACC-62 melanoma were > 100 µM, > 100 µM and 37.9 µM, respectively.

`COc1ccc(/C=C2\SC(c3ccc(OC)cc3)N(NC(=O)Cc3ccccc3)C2=O)cc1` (stereo unspecified): the TGI in the assay with A549 NSCLC, with CCRF-CEM leukemia, in the assay with IGROV1 ovarian, in the assay with NCI-H23 lung, in the assay with RPMI-8226 leukemia and with SK-MEL-5 melanoma was > 100 µM throughout. The TGI in the assay on SW-620 colon, with U251 CNS and in the assay on UACC-62 melanoma was > 100 µM each time.

For `N#CCN1CCOCCOCCN(CC#N)CCOCCOCC1`, the TGI with A549 NSCLC, in the assay with CCRF-CEM leukemia, in the assay on IGROV1 ovarian, with NCI-H23 lung, with RPMI-8226 leukemia and in the assay with SK-MEL-5 melanoma was > 100 µM throughout. Moreover, the TGI in the assay with SW-620 colon and in the assay with UACC-62 melanoma was > 100 µM in each case.

As for `Nc1ncnc2c(C3OC(CO)C(O)C3O)scc12` (stereo unspecified), the TGI in the assay on A549 NSCLC was 1.46 µM and 5.46 µM; with CCRF-CEM leukemia, 4.88 µM and 1.56 µM; in the assay with IGROV1 ovarian it was 3.3 µM; with NCI-H23 lung it was 1.33 µM and 1.39 µM; in the assay with SK-MEL-5 melanoma, 4.68 µM and 2.64 µM; in the assay on SW-620 colon, > 100 µM. The TGI with U251 CNS was > 100 µM. The GI50 in the assay on IGROV1 ovarian is 0.0179 µM; in the assay with NCI-H23 lung, 0.0585 µM; in the assay with SK-MEL-5 melanoma, 0.0781 µM; with U251 CNS, 2.45 µM.

On to `CCOC(=O)C(Cc1ccccc1)NC(=O)OC(C)(C)C` (stereo unspecified), for which the TGI in the assay on A549 NSCLC, in the assay with CCRF-CEM leukemia, in the assay with IGROV1 ovarian, with NCI-H23 lung, in the assay on SW-620 colon and in the assay with U251 CNS was > 100 µM each time. In addition, the TGI with UACC-62 melanoma is > 100 µM.

For the molecule `Cc1c(C(=O)/C=C/c2ccccc2Cl)[n+](=O)c2ccccc2n1[O-]`, the TGI in the assay on A549 NSCLC was 33.3 µM; with IGROV1 ovarian it was 31.6 µM; with NCI-H23 lung it was 28.5 µM; in the assay on RPMI-8226 leukemia, 36.1 µM; in the assay on SK-MEL-5 melanoma, 31.9 µM; with SW-620 colon, 24 µM. This molecule returned a TGI in the assay on U251 CNS of 27.4 µM.
